The values below come from patent US12661353B2, “SPT5 inhibitors and uses thereof” (Yeda Research and Development Co. Ltd., priority 2020, dated 2026).

For the test, the system named is TNFα-induced IL6 mRNA. Nature of the test: Dose-response on TNFα-induced IL6 mRNA levels. It is filed as cell-based, human. The note with it: read-out: IC50, inflammatory gene inhibition (TNFα-induced transcription, FIG. 3D). On the procedure:
Bars represent the mean of at least 3±SEM independent experiments. The asterisks denote statistical significance differences relative to DMSO+TNFα control according to Student's t tests (typically one tailed, paired): *p<0.05; **p<0.01; ***p<0.005; ****p<0.001. […] Shown are mRNA levels of A20 (normalized to GAPDH) in Hela cells treated with SPI-21 and TNFα and incubated with actinomycin D for the indicated time points, as determined by real-time qPCR. The data points present the mean of 3±SEM independent experiments. […] Shown are levels of mature and immature transcripts in cells incubated for 1 hour with DMSO (vehicle control) or 50 μM of SPI-21 or SPI-18 followed by treatment with TNFα for an additional one hour, as determined by real-time qPCR using primers spanning exons 3 and 4 (mature, black arrows shown in the scheme of G, SEQ ID NOs: 47 and 48) or intron 1 and exon 2 (immature, red arrows shown in the scheme of G, SEQ ID NOs: 49 and 50). […] DMSO (vehicle control), SPI-21 or SPI-18 treated cells were induced by TNFα for the indicated times and the levels of IκBα and β-Tubulin proteins were analyzed by western blot as indicated. […] The occupancy of the A20 gene was analyzed by qPCR using primers from the first (A, SEQ ID NOs: 55 and 56), third (B, SEQ ID NOs: 57 and 58) and last (C, SEQ ID NOs: 59 and 60) exon-intron junctions. […]

With `Nc1ccccc1SC(CC(=O)c1cccs1)c1cccs1` (stereo not shown) [SPI-18], the IC50 (as a rule, the concentration that inhibits the measured activity by half) was found to be 39 µM.
